Measurements as given in article PMC11995724, “Antibiotic target discovery by integrated phenotypic and activity-based profiling of electrophilic fragments” (Cell chemical biology, 2025).
Counter-ions that a name gives are not always drawn.

assay: in vitro; details: human, hek293t cells

Row | SMILES | viability at 48 h, 25 µM [%]
1 | CC(C)(C)C1CCc2c(sc(NC(=O)CCl)c2C#N)C1 (stereo not shown) [5-E17, N-(6-tert-butyl-3-cyano-4,5,6,7-tetrahydro-1-benzothiophen-2-yl)-2-chloroacetamide] | 0.117
2 | O=C(CCl)N1CCN(C2CCCN(C3CCOCC3)C2=O)CC1 (stereo not shown) [5-E18, 3-[4-(2-chloroacetyl)piperazin-1-yl]-1-(oxan-4-yl)piperidin-2-one] | 9.07
3 | O=C(CCl)NC1CCN(Cc2ccccc2)CC1 [5-E19, N-(1-benzylpiperidin-4-yl)-2-chloroacetamide hydrochloride] | 1.13
4 | O=C(CCl)N1CCC(C2CCCN(C(=O)C(F)(F)F)C2)CC1 (stereo not shown) [5-E20, 1-[1'-(2-chloroacetyl)-[3,4'-bipiperidin]-1-yl]-2,2,2-trifluoroethan-1-one] | 1.17
5 | CC(Cl)C(=O)Nc1sccc1C#N (stereo not shown) [5-E21, 2-chloro-N-(3-cyanothiophen-2-yl)propanamide] | 59
6 | O=C(CCl)N1C[C@@H]2C[C@H]1CN2c1ccccc1 [5-E22, 2-chloro-1-[(1S,4S)-5-phenyl-2,5-diazabicyclo[2.2.1]heptan-2-yl]ethan-1-one] | 0.453
7 | CNC(=O)C(F)(F)C1(O)CCN(C(=O)CCl)CC1 [5-F03, 2-[1-(2-chloroacetyl)-4-hydroxypiperidin-4-yl]-2,2-difluoro-N-methylacetamide] | 1.94
8 | CC1CN(C(=O)C(C)Cl)CC(C)O1 (stereo not shown) [5-F04, 2-chloro-1-(2,6-dimethylmorpholin-4-yl)propan-1-one] | 96.1
9 | CC(C)n1cc(C2=CCCN(C(=O)CCl)CC2)nn1 [5-F05, 2-chloro-1-{4-[1-(propan-2-yl)-1H-1,2,3-triazol-4-yl]-2,3,6,7-tetrahydro-1H-azepin-1-yl}ethan-1-one] | 1.75
10 | CN(Cc1ccc(N(C)C)cc1)C(=O)CCl [5-F06, 2-chloro-N-{[4-(dimethylamino)phenyl]methyl}-N-methylacetamide hydrochloride] | 0.499
11 | CCN(Cc1cccs1)C(=O)CCl [5-F07, 2-chloro-N-ethyl-N-[(thiophen-2-yl)methyl]acetamide] | 1.01
12 | CC(Cl)C(=O)Nc1ccc(-c2c[nH]cn2)cc1 (stereo not shown) [5-F08, 2-chloro-N-[4-(1H-imidazol-4-yl)phenyl]propanamide] | 98.2
13 | CC(C1CC1)N(Cc1ccccc1)C(=O)CCl (stereo not shown) [5-F09, N-benzyl-2-chloro-N-(1-cyclopropylethyl)acetamide] | 0.956
14 | CC(Cl)C(=O)Nc1ccccc1 (stereo not shown) [5-F10, 2-chloro-N-phenylpropanamide] | 91.9
15 | CC(Cl)C(=O)N1CCCCCC1 (stereo not shown) [5-F11, 1-(azepan-1-yl)-2-chloropropan-1-one] | 105
16 | CC(C1CC1)N(C(=O)CCl)C1CC1 (stereo not shown) [5-F12, 2-chloro-N-cyclopropyl-N-(1-cyclopropylethyl)acetamide] | 1.06
17 | CC(NC(=O)CCl)c1nnc(-c2cccc(F)c2)s1 (stereo not shown) [5-F13, 2-chloro-N-{1-[5-(3-fluorophenyl)-1,3,4-thiadiazol-2-yl]ethyl}acetamide] | 0.963
18 | CC(CC#N)Sc1ccccc1NC(=O)CCl (stereo not shown) [5-F14, 2-chloro-N-{2-[(1-cyanopropan-2-yl)sulfanyl]phenyl}acetamide] | 1.02
19 | CC(Cl)C(=O)N1Cc2ccccc2N(C)C[C@@H]1C (stereo partly drawn) [5-F15, 2-chloro-1-[(3S)-1,3-dimethyl-2,3,4,5-tetrahydro-1H-1,4-benzodiazepin-4-yl]propan-1-one] | 108
20 | Cc1ccc(-c2csc(NC(=O)CCl)n2)cc1C [5-F16, 2-chloro-N-[4-(3,4-dimethylphenyl)-1,3-thiazol-2-yl]acetamide] | 0.595
21 | CC(Cl)C(=O)N1CCN(C(=O)c2cccc(OC(F)F)c2)CC1 (stereo not shown) [5-F17, 2-chloro-1-{4-[3-(difluoromethoxy)benzoyl]piperazin-1-yl}propan-1-one] | 106
22 | CN(CC(=O)Nc1cccc(Cl)c1)C(=O)CCl [5-F18, 2-chloro-N-{[(3-chlorophenyl)carbamoyl]methyl}-N-methylacetamide] | 0.687
23 | CC(Cl)C(=O)Nc1cccc(-c2ncc3n2CCCC3)c1 (stereo not shown) [5-F19, 2-chloro-N-(3-{5H,6H,7H,8H-imidazo[1,5-a]pyridin-3-yl}phenyl)propanamide] | 95.8
24 | O=C(CCl)NCCc1c(F)cccc1F [5-F20, 2-chloro-N-[2-(2,6-difluorophenyl)ethyl]acetamide] | 15.5
25 | CC(Cl)C(=O)N1CC(n2cc(C(N)=O)nn2)C1 (stereo not shown) [5-F21, 1-[1-(2-chloropropanoyl)azetidin-3-yl]-1H-1,2,3-triazole-4-carboxamide] | 94.6
26 | O=C(CCl)N(Cc1ccccc1)Cc1ccco1 [5-F22, N-benzyl-2-chloro-N-[(furan-2-yl)methyl]acetamide] | 0.693
27 | COc1ccc(NC(C)=O)cc1NC(=O)CCl [5-G03, 2-chloro-N-(5-acetamido-2-methoxyphenyl)acetamide] | 1.44
28 | CCC(=O)NC1CCN(C(=O)CCl)C1 (stereo not shown) [5-G04, N-[1-(2-chloroacetyl)pyrrolidin-3-yl]propanamide] | 10.3

Row | SMILES | viability at 48 h, 25 µM [%]
29 | CC(Cl)C(=O)Nc1ccccc1C(N)=O (stereo not shown) [5-G05, 2-(2-chloropropanamido)benzamide] | 101
30 | Cc1noc(C)c1CN(C)C(=O)CCl [5-G06, 2-chloro-N-[(3,5-dimethyl-1,2-oxazol-4-yl)methyl]-N-methylacetamide] | 1.87
31 | COc1ccc2[nH]c3c(c2c1)CCCC3NC(=O)CCl (stereo not shown) [5-G07, 2-chloro-N-(6-methoxy-2,3,4,9-tetrahydro-1H-carbazol-1-yl)acetamide] | 0.129
32 | O=C(CCl)N1CCOc2c1cccc2C(F)(F)F [5-G08, 2-chloro-1-[8-(trifluoromethyl)-3,4-dihydro-2H-1,4-benzoxazin-4-yl]ethan-1-one] | 0.974
33 | O=C(CCl)NC1CCC2(CCC1(F)F)OCCO2 (stereo not shown) [5-G09, 2-chloro-N-{9,9-difluoro-1,4-dioxaspiro[4.6]undecan-8-yl}acetamide] | 5.9
34 | O=C(CCl)N1CC(S(=O)(=O)Nc2ccccc2)C1 [5-G10, 1-(2-chloroacetyl)-N-phenylazetidine-3-sulfonamide] | 1.28
35 | CC(NC(=O)CCl)C(=O)Nc1ccc(Cl)cc1 (stereo not shown) [5-G11, 2-(2-chloroacetamido)-N-(4-chlorophenyl)propanamide] | 1.06
36 | Cc1cc(CN(Cc2cnn(C)c2)C(=O)CCl)ccc1Cl [5-G12, 2-chloro-N-[(4-chloro-3-methylphenyl)methyl]-N-[(1-methyl-1H-pyrazol-4-yl)methyl]acetamide] | -0.0746
37 | CC(C)c1cccc(C(C)C)c1NC(=O)CCl [5-G13, N-[2,6-bis(propan-2-yl)phenyl]-2-chloroacetamide] | 37.8
38 | Cc1cc(CN(Cc2ccn(C)n2)C(=O)CCl)ccc1F [5-G14, 2-chloro-N-[(4-fluoro-3-methylphenyl)methyl]-N-[(1-methyl-1H-pyrazol-3-yl)methyl]acetamide] | 0.658
39 | O=C(CCl)Nc1nc2c(s1)CCCC2 [5-G15, 2-chloro-N-(4,5,6,7-tetrahydro-1,3-benzothiazol-2-yl)acetamide] | 1.2
40 | CCn1cc(CN(C(=O)CCl)[C@H]2CC[C@H](C)CC2)cn1 [5-G16, 2-chloro-N-[(1-ethyl-1H-pyrazol-4-yl)methyl]-N-[(1r,4r)-4-methylcyclohexyl]acetamide] | 0.893
41 | Cc1c(NC(=O)CCl)c(=O)n(-c2ccccc2)n1C [5-G17, 2-chloro-N-(1,5-dimethyl-3-oxo-2-phenyl-2,3-dihydro-1H-pyrazol-4-yl)acetamide] | 42.7
42 | O=C(CCl)N1CCCCC1c1nc(-c2ccccn2)cs1 (stereo not shown) [5-G18, 2-chloro-1-{2-[4-(pyridin-2-yl)-1,3-thiazol-2-yl]piperidin-1-yl}ethan-1-one] | 0.612
43 | O=C(CCl)Nc1cc(Cl)ccc1Oc1ccccc1 [5-G19, 2-chloro-N-(5-chloro-2-phenoxyphenyl)acetamide] | 0.676
44 | O=C(CCl)N1CC(Cc2ccc(F)cc2F)C1 [5-G20, 2-chloro-1-{3-[(2,4-difluorophenyl)methyl]azetidin-1-yl}ethan-1-one] | 0.867
45 | CC(Cl)C(=O)Nc1ccc(Cl)c(S(=O)(=O)N(C)C)c1 (stereo not shown) [5-G21, 2-chloro-N-[4-chloro-3-(dimethylsulfamoyl)phenyl]propanamide] | 78.5
46 | O=C(CCl)NCC(=O)Nc1nccs1 [5-G22, 2-chloro-N-{[(1,3-thiazol-2-yl)carbamoyl]methyl}acetamide] | 3.47
47 | CC(Oc1cccc(F)c1F)C(=O)N1CCN(C(=O)CCl)CC1 (stereo not shown) [5-H03, 1-[4-(2-chloroacetyl)piperazin-1-yl]-2-(2,3-difluorophenoxy)propan-1-one] | 1.67
48 | CC(Cl)C(=O)N1CCc2ccccc21 (stereo not shown) [5-H04, 2-chloro-1-(2,3-dihydro-1H-indol-1-yl)propan-1-one] | 114
49 | CC1=C(c2ccco2)CN(C(=O)CCl)CC1 [5-H05, 2-chloro-1-[5-(furan-2-yl)-4-methyl-1,2,3,6-tetrahydropyridin-1-yl]ethan-1-one] | 69.1
50 | CN(C(=O)CCl)C(c1ccccc1)c1ccccc1 [5-H06, 2-chloro-N-(diphenylmethyl)-N-methylacetamide] | 0.0655
51 | CC1CSc2ccccc2N(C(=O)CCl)C1 (stereo not shown) [5-H07, 2-chloro-1-(3-methyl-2,3,4,5-tetrahydro-1,5-benzothiazepin-5-yl)ethan-1-one] | 0.825
52 | CCN(Cc1ccc(C#N)cc1F)C(=O)CCl [5-H08, 2-chloro-N-[(4-cyano-2-fluorophenyl)methyl]-N-ethylacetamide] | 0.591
53 | CC(Cl)C(=O)N1CCOCC1 (stereo not shown) [5-H09, 2-chloro-1-(morpholin-4-yl)propan-1-one] | 103
54 | CC(Cl)C(=O)Nc1ccc2ccccc2c1 (stereo not shown) [5-H10, 2-chloro-N-(naphthalen-2-yl)propanamide] | 90.7
55 | CCCN(CC1CC1)C(=O)CCl [5-H11, 2-chloro-N-(cyclopropylmethyl)-N-propylacetamide] | 1.45
